2 compounds from BindingDB's records for doi:10.1016/0960-894X(95)00360-6 (1995) can be followed below.

The assay in a line: Ability to inhibit calf thymus topoisomerase I when assayed in the cleavable complex formation.

For orientation: IC50 means the concentration needed to halve the response being measured. Read a low IC50 as inhibition by little substance.

For the compound `CC[C@@]1(O)C(=O)OCc2c1cc1n(c2=O)Cc2cc3cc4ncoc4cc3nc2-1` [7-ethyl-7-hydroxy-(7S)-7,8,11,13-tetrahydro-10H-[1,3]oxazolo[4,5-g]pyrano[3',4':6,7]indolizino[1,2-b]quinoline-8,11-dione], the 50% inhibitory concentration (IC50) worked out at 150 nM.
`CC[C@@]1(O)C(=O)OCc2c1cc1n(c2=O)Cc2cc3cc(N)c(O)cc3nc2-1` [(S)-9-Amino-4-ethyl-4,8-dihydroxy-1,12-dihydro-4H-2-oxa-6,12a-diaza-dibenzo[b,h]fluorene-3,13-dione] showed a 50% inhibitory concentration (IC50) of 170 nM.
